Assay results taken from publication PMC6409085, “Three odorant-binding proteins are involved in the behavioral response of Sogatella furcifera to rice plant volatiles” (PeerJ, 2019).
pIC50: −log10 of the molar value. Several values for one entry are separate records, joined by “and”; a condition that tells them apart may be missing. Equal values may be shown once.

Experiments:
S. furcifera adults = experiment: Y-tube olfactometer behavioral trials; format: in vivo, Sogatella furcifera; conditions: odorant 50 µL/L vs hexane
Procedure, shortened: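 Single S. furcifera adults (2 days post-emergence, starved 0.5 h) chose between odorant (100 µL of 50 µL/L on filter paper) and hexane control in a glass Y-tube, charcoal-filtered humidified air 300 mL/min per arm, 25 ± 1 °C, 50% RH. Choice scored if insect passed half an arm and stayed >1 min within 10 min; 45 insects per compound, chi-squared test.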

SfurOBP2 = SfurOBP2 (Sogatella furcifera, UniProt V5T759); experiment: biochemical; format: binding
Sequence of SfurOBP2 (V5T759 entry or part of it): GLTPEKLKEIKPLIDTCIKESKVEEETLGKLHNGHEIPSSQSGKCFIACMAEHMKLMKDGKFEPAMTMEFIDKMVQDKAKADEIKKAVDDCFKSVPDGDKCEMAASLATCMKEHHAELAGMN
Procedure, shortened: (§1)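 Fluorescence competitive binding used 2.0 µM SfurOBP and 2.0 µM 1-NPN reporter in 50 mM Tris-HCl, pH 7.4, with odorants at 2-20 µM. Fluorescence was read 2 min after adding the odorant (excitation 337 nm, emission 390-490 nm), in triplicate. Ki was calculated from IC50 as IC50/(1 + [1-NPN]/K1-NPN).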

SfurOBP3 = SfurOBP3 (Sogatella furcifera, UniProt V5T818); experiment: biochemical; format: binding; conditions: for Fluorescence competitive binding assay, fluorescence intensity: OBP3, three replicate columns
Sequence of SfurOBP3 (V5T818 entry or part of it): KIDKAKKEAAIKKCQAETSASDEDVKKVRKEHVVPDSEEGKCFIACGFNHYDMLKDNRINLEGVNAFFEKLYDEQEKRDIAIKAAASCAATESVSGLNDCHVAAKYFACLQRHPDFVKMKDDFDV
Procedure, shortened: as §1

SfurOBP11 = SfurOBP11 (Sogatella furcifera, UniProt V5T6E3); experiment: biochemical; format: binding
Sequence of SfurOBP11 (V5T6E3 entry or part of it): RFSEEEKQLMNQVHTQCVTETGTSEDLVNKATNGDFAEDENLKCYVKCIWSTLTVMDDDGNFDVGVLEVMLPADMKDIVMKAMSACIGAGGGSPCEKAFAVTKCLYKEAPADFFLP
Procedure, shortened: as §1

SfurOBP1 = SfurOBP1 (Sogatella furcifera, UniProt V5T8N5); experiment: biochemical; format: binding; conditions: for Fluorescence competitive binding assay, fluorescence intensity: OBP1, three replicate columns
Sequence of SfurOBP1 (V5T8N5 entry or part of it): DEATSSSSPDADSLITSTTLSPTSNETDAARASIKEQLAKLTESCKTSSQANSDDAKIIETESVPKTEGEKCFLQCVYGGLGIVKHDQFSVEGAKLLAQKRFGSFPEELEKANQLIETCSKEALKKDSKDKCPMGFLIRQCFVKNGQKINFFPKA
Procedure, shortened: as §1

CCCCCC(C)=O [2-heptanone] was tested, and the “behavioral response of S. furcifera (in words)” value (S. furcifera adults) was “strongly attracted”, the “number of insects choosing hexane arm” value (S. furcifera adults; adults) was 8 and the “number of insects choosing volatilies arm” value (S. furcifera adults; adults) was 21. For the same compound, the “number of insects failed (no choice)” value (S. furcifera adults; adults) was 11, the pIC50 (SfurOBP2; SfurOBP2, protein and 1-NPN both 2.0 µM, competitor 2-20 µM, read-out: IC50) was under 4.70 and the “Fluorescence competitive binding assay, OBP2 (raw fluorescence reading)” value (SfurOBP2; ligand concentration 2 (unit not given), replicate column 1 of 3) was 19792. The “Fluorescence competitive binding assay, OBP2 (raw fluorescence reading)” value (SfurOBP2; ligand concentration 2 (unit not given), replicate column 2 of 3) was 17859, the “Fluorescence competitive binding assay, OBP2 (raw fluorescence reading)” value (SfurOBP2; ligand concentration 2 (unit not given), replicate column 3 of 3) was 20079 and the “Fluorescence competitive binding assay, OBP2 (raw fluorescence reading)” value (SfurOBP2; ligand concentration 4 (unit not given), replicate column 1 of 3) was 17338. The “Fluorescence competitive binding assay, OBP2 (raw fluorescence reading)” value (SfurOBP2; ligand concentration 4 (unit not given), replicate column 2 of 3) was 18012, the “Fluorescence competitive binding assay, OBP2 (raw fluorescence reading)” value (SfurOBP2; ligand concentration 4 (unit not given), replicate column 3 of 3) was 20388 and the “Fluorescence competitive binding assay, OBP2 (raw fluorescence reading)” value (SfurOBP2; ligand concentration 6 (unit not given), replicate column 1 of 3) was 17013. The “Fluorescence competitive binding assay, OBP2 (raw fluorescence reading)” value (SfurOBP2; ligand concentration 6 (unit not given), replicate column 2 of 3) was 18530, the “Fluorescence competitive binding assay, OBP2 (raw fluorescence reading)” value (SfurOBP2; ligand concentration 6 (unit not given), replicate column 3 of 3) was 19352 and the “Fluorescence competitive binding assay, OBP2 (raw fluorescence reading)” value (SfurOBP2; ligand concentration 8 (unit not given), replicate column 1 of 3) was 15771. The “Fluorescence competitive binding assay, OBP2 (raw fluorescence reading)” value (SfurOBP2; ligand concentration 8 (unit not given), replicate column 2 of 3) was 11853, the “Fluorescence competitive binding assay, OBP2 (raw fluorescence reading)” value (SfurOBP2; ligand concentration 8 (unit not given), replicate column 3 of 3) was 17932 and the “Fluorescence competitive binding assay, OBP2 (raw fluorescence reading)” value (SfurOBP2; ligand concentration 10 (unit not given), replicate column 1 of 3) was 15741. For the same compound, the “Fluorescence competitive binding assay, OBP2 (raw fluorescence reading)” value (SfurOBP2; ligand concentration 10 (unit not given), replicate column 2 of 3) was 17236, the “Fluorescence competitive binding assay, OBP2 (raw fluorescence reading)” value (SfurOBP2; ligand concentration 10 (unit not given), replicate column 3 of 3) was 17972 and the “Fluorescence competitive binding assay, OBP2 (raw fluorescence reading)” value (SfurOBP2; ligand concentration 12 (unit not given), replicate column 1 of 3) was 14577. The “Fluorescence competitive binding assay, OBP2 (raw fluorescence reading)” value (SfurOBP2; ligand concentration 12 (unit not given), replicate column 2 of 3) was 14468, the “Fluorescence competitive binding assay, OBP2 (raw fluorescence reading)” value (SfurOBP2; ligand concentration 12 (unit not given), replicate column 3 of 3) was 15583 and the “Fluorescence competitive binding assay, OBP2 (raw fluorescence reading)” value (SfurOBP2; ligand concentration 14 (unit not given), replicate column 1 of 3) was 14055. For the same compound, the “Fluorescence competitive binding assay, OBP2 (raw fluorescence reading)” value (SfurOBP2; ligand concentration 14 (unit not given), replicate column 2 of 3) was 13126, the “Fluorescence competitive binding assay, OBP2 (raw fluorescence reading)” value (SfurOBP2; ligand concentration 14 (unit not given), replicate column 3 of 3) was 14409 and the “Fluorescence competitive binding assay, OBP2 (raw fluorescence reading)” value (SfurOBP2; ligand concentration 16 (unit not given), replicate column 1 of 3) was 12777. The “Fluorescence competitive binding assay, OBP2 (raw fluorescence reading)” value (SfurOBP2; ligand concentration 16 (unit not given), replicate column 2 of 3) was 13653, the “Fluorescence competitive binding assay, OBP2 (raw fluorescence reading)” value (SfurOBP2; ligand concentration 16 (unit not given), replicate column 3 of 3) was 13817 and the “Fluorescence competitive binding assay, OBP2 (raw fluorescence reading)” value (SfurOBP2; ligand concentration 18 (unit not given), replicate column 1 of 3) was 17551. For the same compound, the “Fluorescence competitive binding assay, OBP2 (raw fluorescence reading)” value (SfurOBP2; ligand concentration 18 (unit not given), replicate column 2 of 3) was 16085, the “Fluorescence competitive binding assay, OBP2 (raw fluorescence reading)” value (SfurOBP2; ligand concentration 18 (unit not given), replicate column 3 of 3) was 21813 and the “Fluorescence competitive binding assay, OBP2 (raw fluorescence reading)” value (SfurOBP2; ligand concentration 20 (unit not given), replicate column 1 of 3) was 14165. The “Fluorescence competitive binding assay, OBP2 (raw fluorescence reading)” value (SfurOBP2; ligand concentration 20 (unit not given), replicate column 2 of 3) was 14167, the “Fluorescence competitive binding assay, OBP2 (raw fluorescence reading)” value (SfurOBP2; ligand concentration 20 (unit not given), replicate column 3 of 3) was 13571 and the “Fluorescence competitive binding assay, fluorescence intensity” value (SfurOBP3; ligand concentration 2) was 37101 and 37506 and 37304. The “Fluorescence competitive binding assay, fluorescence intensity” value (SfurOBP3; ligand concentration 4) was 36141 and 37871 and 37816, the “Fluorescence competitive binding assay, fluorescence intensity” value (SfurOBP3; ligand concentration 6) was 36419 and 39158 and 37789 and the “Fluorescence competitive binding assay, fluorescence intensity” value (SfurOBP3; ligand concentration 8) was 33665 and 34797 and 35932. The “Fluorescence competitive binding assay, fluorescence intensity” value (SfurOBP3; ligand concentration 10) was 33290 and 35900 and 35256, the “Fluorescence competitive binding assay, fluorescence intensity” value (SfurOBP3; ligand concentration 12) was 29962 and 33001 and 33859 and the “Fluorescence competitive binding assay, fluorescence intensity” value (SfurOBP3; ligand concentration 14) was 28260 and 30707 and 32190. The “Fluorescence competitive binding assay, fluorescence intensity” value (SfurOBP3; ligand concentration 16) was 28891 and 29426 and 29159, the “Fluorescence competitive binding assay, fluorescence intensity” value (SfurOBP3; ligand concentration 18) was 26989 and 27471 and 26506 and the “Fluorescence competitive binding assay, fluorescence intensity” value (SfurOBP3; ligand concentration 20) was 26994 and 26547 and 27440. The “binding affinity to SfurOBP3 (in words)” value (SfurOBP3; SfurOBP3) was “high binding affinities”, the pIC50 (SfurOBP3; SfurOBP3, protein and 1-NPN both 2.0 µM, competitor 2-20 µM, read-out: IC50) was 4.81 and the pIC50 (SfurOBP11; SfurOBP11, protein and 1-NPN both 2.0 µM, competitor 2-20 µM, read-out: IC50) was under 4.70. The “Fluorescence intensity, fluorescence competitive binding assay, OBP11” value (shortened to “Fluorescence intensity … OBP11”) (SfurOBP11; ligand concentration 2, replicate 1) was 24306, the “Fluorescence intensity … OBP11” value (SfurOBP11; ligand concentration 2, replicate 2) was 24787 and the “Fluorescence intensity … OBP11” value (SfurOBP11; ligand concentration 2, replicate 3) was 25268. For the same compound, the “Fluorescence intensity … OBP11” value (SfurOBP11; ligand concentration 4, replicate 1) was 24848, the “Fluorescence intensity … OBP11” value (SfurOBP11; ligand concentration 4, replicate 2) was 24623 and the “Fluorescence intensity … OBP11” value (SfurOBP11; ligand concentration 4, replicate 3) was 25072. The “Fluorescence intensity … OBP11” value (SfurOBP11; ligand concentration 6, replicate 1) was 24984, the “Fluorescence intensity … OBP11” value (SfurOBP11; ligand concentration 6, replicate 2) was 24187 and the “Fluorescence intensity … OBP11” value (SfurOBP11; ligand concentration 6, replicate 3) was 25781. The “Fluorescence intensity … OBP11” value (SfurOBP11; ligand concentration 8, replicate 1) was 23438, the “Fluorescence intensity … OBP11” value (SfurOBP11; ligand concentration 8, replicate 2) was 23156 and the “Fluorescence intensity … OBP11” value (SfurOBP11; ligand concentration 8, replicate 3) was 23719. For the same compound, the “Fluorescence intensity … OBP11” value (SfurOBP11; ligand concentration 10, replicate 1) was 22448, the “Fluorescence intensity … OBP11” value (SfurOBP11; ligand concentration 10, replicate 2) was 22213 and the “Fluorescence intensity … OBP11” value (SfurOBP11; ligand concentration 10, replicate 3) was 22684. The “Fluorescence intensity … OBP11” value (SfurOBP11; ligand concentration 12, replicate 1) was 22134, the “Fluorescence intensity … OBP11” value (SfurOBP11; ligand concentration 12, replicate 2) was 22969 and the “Fluorescence intensity … OBP11” value (SfurOBP11; ligand concentration 12, replicate 3) was 22151. The “Fluorescence intensity … OBP11” value (SfurOBP11; ligand concentration 14, replicate 1) was 21048, the “Fluorescence intensity … OBP11” value (SfurOBP11; ligand concentration 14, replicate 2) was 20368 and the “Fluorescence intensity … OBP11” value (SfurOBP11; ligand concentration 14, replicate 3) was 20708. The “Fluorescence intensity … OBP11” value (SfurOBP11; ligand concentration 16, replicate 1) was 19801, the “Fluorescence intensity … OBP11” value (SfurOBP11; ligand concentration 16, replicate 2) was 20307 and the “Fluorescence intensity … OBP11” value (SfurOBP11; ligand concentration 16, replicate 3) was 20932. For the same compound, the “Fluorescence intensity … OBP11” value (SfurOBP11; ligand concentration 18, replicate 1) was 20181, the “Fluorescence intensity … OBP11” value (SfurOBP11; ligand concentration 18, replicate 2) was 20256 and the “Fluorescence intensity … OBP11” value (SfurOBP11; ligand concentration 18, replicate 3) was 20300. For the same compound, the “Fluorescence intensity … OBP11” value (SfurOBP11; ligand concentration 20, replicate 1) was 20105, the “Fluorescence intensity … OBP11” value (SfurOBP11; ligand concentration 20, replicate 2) was 20028 and the “Fluorescence intensity … OBP11” value (SfurOBP11; ligand concentration 20, replicate 3) was 20212. For the same compound, the “Fluorescence competitive binding assay, fluorescence intensity” value (SfurOBP1; ligand concentration 2 (μM)) was 5565 and 5797 and 5680, the “Fluorescence competitive binding assay, fluorescence intensity” value (SfurOBP1; ligand concentration 4 (μM)) was 6133 and 7369 and 7766 and the “Fluorescence competitive binding assay, fluorescence intensity” value (SfurOBP1; ligand concentration 6 (μM)) was 7319 and 6450 and 6758. For the same compound, the “Fluorescence competitive binding assay, fluorescence intensity” value (SfurOBP1; ligand concentration 8 (μM)) was 6247 and 6677 and 6608, the “Fluorescence competitive binding assay, fluorescence intensity” value (SfurOBP1; ligand concentration 10 (μM)) was 5974 and 6580 and 6200 and the “Fluorescence competitive binding assay, fluorescence intensity” value (SfurOBP1; ligand concentration 12 (μM)) was 6115 and 6844 and 6487. For the same compound, the “Fluorescence competitive binding assay, fluorescence intensity” value (SfurOBP1; ligand concentration 14 (μM)) was 7227 and 6939 and 7296, the “Fluorescence competitive binding assay, fluorescence intensity” value (SfurOBP1; ligand concentration 16 (μM)) was 7221 and 7791 and 6651 and the “Fluorescence competitive binding assay, fluorescence intensity” value (SfurOBP1; ligand concentration 18 (μM)) was 6902 and 6623 and 6730. For the same compound, the “Fluorescence competitive binding assay, fluorescence intensity” value (SfurOBP1; ligand concentration 20 (μM)) was 6454 and 6429 and 6479 and the pIC50 (SfurOBP1; SfurOBP1, protein and 1-NPN both 2.0 µM, competitor 2-20 µM, read-out: IC50) was under 4.70.
